{"source": "patent US8497307B2", "about": "“Aryl guanidine F1F0-ATPase inhibitors and related methods” (The Regents of the University of Michigan, priority 2008, dated 2013)", "data": [{"system": "Ramos cells", "test": "Cytotoxicity in Ramos cells (cell death)", "format": "cell-based", "method": "The compounds listed in Table 7 were tested for cytotoxicity in Ramos cells. The assay was conducted as described in K. M. Johnson et al. Chemistry & Biology 2005, 12, 485-496.", "units": {"EC50": "µM"}, "values": [{"smiles": "CC(C)(C)c1ccccc1NC(=NC(=O)c1ccc(C(F)(F)F)cc1F)Nc1ccc2oc(=O)[nH]c2c1", "note": "[Compound I-132]", "EC50": "> 10"}, {"smiles": "N#Cc1cccc(C(=O)N=C(Nc2cccc(C(F)(F)F)c2)Nc2ccc3oc(=O)[nH]c3c2)c1", "note": "[Compound I-133]", "EC50": "> 10"}, {"smiles": "Cn1c(=O)oc2cc(NC(=NC(=O)c3ccc(C(F)(F)F)cc3)Nc3ccccc3C(C)(C)C)ccc21", "note": "[Compound I-134]", "EC50": "> 10"}, {"smiles": "O=C(N=C(Nc1cccc(C2CC2)c1)Nc1ccc2oc(=O)[nH]c2c1)c1ccc(C(F)(F)F)cc1", "note": "[Compound I-135]", "EC50": "> 10"}, {"smiles": "N#Cc1cccc(C(=O)N=C(Nc2cccc(C3CC3)c2)Nc2ccc3oc(=O)[nH]c3c2)c1", "note": "[Compound I-136]", "EC50": "< 10"}, {"smiles": "O=C(N=C(Nc1ccc(C2CC2)cc1)Nc1ccc2[nH]c(=O)oc2c1)c1ccc(C(F)(F)F)cc1", "note": "[Compound I-137]", "EC50": "< 10"}, {"smiles": "N#Cc1cccc(C(=O)N=C(Nc2ccc(C3CC3)cc2)Nc2ccc3[nH]c(=O)oc3c2)c1", "note": "[Compound I-138]", "EC50": "< 10"}, {"smiles": "O=C(N=C(Nc1ccc2[nH]ncc2c1)Nc1ccccc1C(F)(F)F)c1ccc(Br)cc1", "note": "[II-1]", "EC50": "< 10"}, {"smiles": "O=C(N=C(Nc1ccc2[nH]ncc2c1)Nc1ccccc1C(F)(F)F)c1ccc(Cl)cc1", "note": "[II-2]", "EC50": "< 10"}, {"smiles": "O=C(N=C(Nc1ccc2[nH]ncc2c1)Nc1ccccc1C(F)(F)F)c1cccc(Cl)c1", "note": "[II-3]", "EC50": "< 10"}, {"smiles": "O=C(N=C(Nc1ccc2[nH]ncc2c1)Nc1ccccc1C(F)(F)F)c1ccc(F)cc1", "note": "[II-4]", "EC50": "< 10"}, {"smiles": "CC(C)(C)c1ccccc1NC(=NC(=O)c1ccc(Br)cc1)Nc1ccc2[nH]ncc2c1", "note": "[II-5]", "EC50": "< 10"}, {"smiles": "CC(C)(C)c1ccccc1NC(=NC(=O)c1ccc(Cl)cc1)Nc1ccc2[nH]ncc2c1", "note": "[II-6]", "EC50": "< 10"}, {"smiles": "CC(C)(C)c1ccccc1NC(=NC(=O)c1cccc(Cl)c1)Nc1ccc2[nH]ncc2c1", "note": "[II-7]", "EC50": "< 10"}, {"smiles": "CC(C)(C)c1ccccc1NC(=NC(=O)c1ccc(F)cc1)Nc1ccc2[nH]ncc2c1", "note": "[II-8]", "EC50": "< 10"}, {"smiles": "O=C(N=C(Nc1ccc2ccccc2c1)Nc1ccc2[nH]ncc2c1)c1ccc(Br)cc1", "note": "[II-9]", "EC50": "< 10"}, {"smiles": "O=C(N=C(Nc1ccc2ccccc2c1)Nc1ccc2[nH]ncc2c1)c1ccc(Cl)cc1", "note": "[II-10]", "EC50": "< 10"}, {"smiles": "O=C(N=C(Nc1ccc2ccccc2c1)Nc1ccc2[nH]ncc2c1)c1cccc(Cl)c1", "note": "[II-11]", "EC50": "< 10"}, {"smiles": "O=C(N=C(Nc1ccc2ccccc2c1)Nc1ccc2[nH]ncc2c1)c1ccc(F)cc1", "note": "[II-12]", "EC50": "< 10"}, {"smiles": "O=C(N=C(Nc1ccc(-c2ccccc2)cc1)Nc1ccc2[nH]ncc2c1)c1ccc(Br)cc1", "note": "[II-13]", "EC50": "< 10"}, {"smiles": "O=C(N=C(Nc1ccc(-c2ccccc2)cc1)Nc1ccc2[nH]ncc2c1)c1ccc(Cl)cc1", "note": "[II-14]", "EC50": "< 10"}, {"smiles": "O=C(N=C(Nc1ccc(-c2ccccc2)cc1)Nc1ccc2[nH]ncc2c1)c1cccc(Cl)c1", "note": "[II-15]", "EC50": "< 10"}, {"smiles": "O=C(N=C(Nc1ccc(-c2ccccc2)cc1)Nc1ccc2[nH]ncc2c1)c1ccc(F)cc1", "note": "[II-16]", "EC50": "< 10"}, {"smiles": "O=C(N=C(Nc1cccc(C(F)(F)F)c1)Nc1ccc2[nH]ncc2c1)c1ccc(C(F)(F)F)cc1", "note": "[II-17]", "EC50": "< 10"}, {"smiles": "CC(C)(C)c1ccccc1NC(=NC(=O)c1ccc(C(F)(F)F)cc1)Nc1ccc2[nH]ncc2c1", "note": "[II-18]", "EC50": "< 10"}, {"smiles": "O=C(N=C(Nc1ccc(Cl)cc1)Nc1ccc2[nH]ncc2c1)c1ccc(C(F)(F)F)cc1", "note": "[II-19]", "EC50": "< 10"}, {"smiles": "O=C(N=C(Nc1cccc(Cl)c1)Nc1ccc2[nH]ncc2c1)c1ccc(C(F)(F)F)cc1", "note": "[II-20]", "EC50": "< 10"}, {"smiles": "O=C(N=C(Nc1cccc(C(F)(F)F)c1)Nc1ccc2[nH]ncc2c1)c1ccc(Cl)cc1", "note": "[II-21]", "EC50": "< 10"}, {"smiles": "O=C(N=C(Nc1ccc(Cl)cc1)Nc1ccc2[nH]ncc2c1)c1ccc(Cl)cc1", "note": "[II-22]", "EC50": "< 10"}, {"smiles": "O=C(N=C(Nc1cccc(Cl)c1)Nc1ccc2[nH]ncc2c1)c1ccc(Cl)cc1", "note": "[II-23]", "EC50": "< 10"}, {"smiles": "O=C(N=C(NCCc1c[nH]cn1)Nc1ccccc1C(F)(F)F)c1ccc(Br)cc1", "note": "[III-1]", "EC50": "> 10"}, {"smiles": "O=C(N=C(NCCc1c[nH]cn1)Nc1ccccc1C(F)(F)F)c1ccc(Cl)cc1", "note": "[III-2]", "EC50": "> 10"}, {"smiles": "O=C(N=C(NCCc1c[nH]cn1)Nc1ccccc1C(F)(F)F)c1ccc(F)cc1", "note": "[III-3]", "EC50": "> 10"}, {"smiles": "CC(C)(C)c1ccccc1NC(=NC(=O)c1ccc(Br)cc1)NCCc1c[nH]cn1", "note": "[III-4]", "EC50": "< 10"}, {"smiles": "CC(C)(C)c1ccccc1NC(=NC(=O)c1ccc(Cl)cc1)NCCc1c[nH]cn1", "note": "[III-5]", "EC50": "< 10"}, {"smiles": "CC(C)(C)c1ccccc1NC(=NC(=O)c1cccc(Cl)c1)NCCc1c[nH]cn1", "note": "[III-6]", "EC50": "< 10"}, {"smiles": "CC(C)(C)c1ccccc1NC(=NC(=O)c1ccc(F)cc1)NCCc1c[nH]cn1", "note": "[III-7]", "EC50": "> 10"}, {"smiles": "O=C(N=C(NCCc1c[nH]cn1)Nc1ccc2ccccc2c1)c1ccc(Br)cc1", "note": "[III-8]", "EC50": "< 10"}, {"smiles": "O=C(N=C(NCCc1c[nH]cn1)Nc1ccc2ccccc2c1)c1ccc(Cl)cc1", "note": "[III-9]", "EC50": "> 10"}, {"smiles": "O=C(N=C(NCCc1c[nH]cn1)Nc1ccc2ccccc2c1)c1cccc(Cl)c1", "note": "[III-10]", "EC50": "< 10"}, {"smiles": "O=C(N=C(NCCc1c[nH]cn1)Nc1ccc2ccccc2c1)c1ccc(F)cc1", "note": "[III-11]", "EC50": "> 10"}]}]}
